Assay results as given in patent US11046699B2, “Pyrazolo-pyrimidin-amino-cycloalkyl compounds and their therapeutic uses” (RAPT THERAPEUTICS, INC., priority 2018, dated 2021).
pIC50: −log10 of the molar value. Where a name gives a salt, the structure may show the parent alone.

Target: GCN2 (Homo sapiens, UniProt Q9P2K8)
Test: GCN2 enzymatic endpoint assay: phosphorylation of GFP-eIF2α measured by TR-FRET (Lanthascreen)
Format: biochemical
Conditions: GCN2 biochemical IC50; 4 nM GCN2, 2 μM ATP, 80 nM GFP-eIF2α, 90 min RT; read-out: GCN2 activity
In short: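 Reaction started with 2 μM ATP and 80 nM GFP-labelled eIF2α substrate at room temperature, stopped with EDTA after 90 minutes. Phospho-eIF2α detected by terbium-labelled antibody TR-FRET; activity taken as 520 nm (fluorescein) to 495 nm (terbium) emission ratio.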

GCN2, sequence (Q9P2K8 whole entry): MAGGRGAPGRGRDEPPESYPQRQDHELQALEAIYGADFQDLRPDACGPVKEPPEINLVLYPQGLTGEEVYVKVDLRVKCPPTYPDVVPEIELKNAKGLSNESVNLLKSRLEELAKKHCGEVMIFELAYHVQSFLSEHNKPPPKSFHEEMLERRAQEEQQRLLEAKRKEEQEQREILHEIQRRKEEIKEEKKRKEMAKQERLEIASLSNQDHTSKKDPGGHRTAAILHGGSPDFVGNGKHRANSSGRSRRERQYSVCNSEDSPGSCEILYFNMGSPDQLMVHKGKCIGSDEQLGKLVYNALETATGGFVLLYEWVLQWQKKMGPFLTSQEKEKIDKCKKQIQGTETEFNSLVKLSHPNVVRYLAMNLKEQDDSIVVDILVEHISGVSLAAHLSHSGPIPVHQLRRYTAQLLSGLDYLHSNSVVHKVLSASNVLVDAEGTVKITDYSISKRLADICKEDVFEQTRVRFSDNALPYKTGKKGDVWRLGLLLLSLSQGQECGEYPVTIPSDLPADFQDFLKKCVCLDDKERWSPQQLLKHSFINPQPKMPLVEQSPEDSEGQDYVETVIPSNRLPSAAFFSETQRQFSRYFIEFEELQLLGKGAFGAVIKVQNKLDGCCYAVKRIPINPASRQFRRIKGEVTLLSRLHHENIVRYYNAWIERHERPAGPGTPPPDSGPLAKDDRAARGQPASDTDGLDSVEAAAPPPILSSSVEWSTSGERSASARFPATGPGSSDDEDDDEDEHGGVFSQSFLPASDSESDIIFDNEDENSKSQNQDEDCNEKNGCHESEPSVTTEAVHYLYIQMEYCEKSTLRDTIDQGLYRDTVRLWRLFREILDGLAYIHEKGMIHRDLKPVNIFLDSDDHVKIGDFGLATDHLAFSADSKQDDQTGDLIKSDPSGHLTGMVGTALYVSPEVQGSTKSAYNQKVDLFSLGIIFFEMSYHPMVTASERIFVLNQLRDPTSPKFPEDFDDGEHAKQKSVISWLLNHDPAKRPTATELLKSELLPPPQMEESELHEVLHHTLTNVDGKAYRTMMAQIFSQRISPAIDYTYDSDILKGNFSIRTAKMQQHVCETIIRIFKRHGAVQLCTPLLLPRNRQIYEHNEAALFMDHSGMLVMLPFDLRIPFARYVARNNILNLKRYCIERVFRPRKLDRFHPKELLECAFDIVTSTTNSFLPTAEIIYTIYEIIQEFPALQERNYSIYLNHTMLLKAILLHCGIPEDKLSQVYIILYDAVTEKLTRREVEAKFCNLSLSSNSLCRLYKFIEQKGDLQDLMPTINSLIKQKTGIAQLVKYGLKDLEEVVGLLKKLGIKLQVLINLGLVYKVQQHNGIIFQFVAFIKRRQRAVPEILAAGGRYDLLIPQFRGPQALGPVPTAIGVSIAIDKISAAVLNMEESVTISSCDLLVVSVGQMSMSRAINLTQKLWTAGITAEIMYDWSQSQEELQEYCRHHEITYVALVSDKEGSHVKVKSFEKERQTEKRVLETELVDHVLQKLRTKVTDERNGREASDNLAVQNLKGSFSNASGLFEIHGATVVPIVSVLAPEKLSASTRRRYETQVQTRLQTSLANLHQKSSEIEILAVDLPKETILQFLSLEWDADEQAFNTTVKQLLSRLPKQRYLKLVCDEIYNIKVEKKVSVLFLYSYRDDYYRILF

pIC50	SMILES
> 7.60	CNC(=O)[C@]1(C)CC[C@@H](Nc2ncc3c(Br)nn(-c4ccc(-c5nnc(C)s5)c(C#N)c4)c3n2)C1 [Example 69, (1R,3R)-3-((3-bromo-1-(3-cyano-4-(5-methyl-1,3,4-thiadiazol-2-yl)phenyl)-1H-pyrazolo[3,4-d]pyrimidin-6-yl)amino)-N,1-dimethylcyclopentane-1-carboxamide]
> 7.60	CNC(=O)[C@]1(C)CC[C@@H](Nc2ncc3c(Br)nn(-c4cc(Cl)cc(CCN)c4)c3n2)C1 [Example 41, (1R,3R)-3-((1-(3-(2-aminoethyl)-5-chlorophenyl)-3-bromo-1H-pyrazolo[3,4-d]pyrimidin-6-yl)amino)-N,1-dimethylcyclopentane-1-carboxamide hydrochloride]

Same assay, conditions: tested as described in Example 77; compound and/or hydrochloride, dihydrochloride or trifluoroacetic acid salt; read-out: IC 50 Activity

pIC50	SMILES
6.70 to 7.60	CNC(=O)[C@]1(C)CC[C@@H](Nc2ncc3c(Br)nn(-c4cc(CC(C)(C)O)c5ncccc5c4)c3n2)C1 [(1R,3R)-3-[[3-bromo-1-[8-(2-hydroxy-2-methyl-propyl)-6-quinolyl]pyrazolo[3,4-d]pyrimidin-6-yl]amino]-N,1-dimethyl-cyclopentanecarboxamide]
6.70 to 7.60	CNC(=O)[C@]1(C)CC[C@@H](Nc2ncc3c(Br)nn(-c4ccc(-c5nnc(C)s5)c(OCC#N)c4)c3n2)C1 [(1R,3R)-3-[[3-bromo-1-[3-(cyanomethoxy)-4-(5-methyl-1,3,4-thiadiazol-2-yl)phenyl]pyrazolo[3,4-d]pyrimidin-6-yl]amino]-N,1-dimethyl-cyclopentanecarboxamide]
6.70 to 7.60	CNC(=O)[C@]1(C)CC[C@@H](Nc2ncc3c(Br)nn(-c4ccc(-c5ncc(C)[nH]5)cc4)c3n2)C1 [(1R,3R)-3-[[3-bromo-1-[4-(5-methyl-1H-imidazol-2-yl)phenyl]pyrazolo[3,4-d]pyrimidin-6-yl]amino]-N,1-dimethyl-cyclopentanecarboxamide]
6.70 to 7.60	CP(C)(=O)[C@@H]1CC[C@@H](Nc2ncc3c(Br)nn(-c4cc(C#N)cc(OCC5(F)CNC5)c4)c3n2)C1 [3-[3-bromo-6-[[(1R,3R)-3-dimethylphosphorylcyclopentyl]amino]pyrazolo[3,4-d]pyrimidin-1-yl]-5-[(3-fluoroazetidin-3-yl)methoxy]benzonitrile]
6.70 to 7.60	CNC(=O)[C@]1(C)CC[C@@H](Nc2ncc3c(Br)nn(-c4ccc(-c5cncnc5)cc4)c3n2)C1 [(1R,3R)-3-[[3-bromo-1-(4-pyrimidin-5-ylphenyl)pyrazolo[3,4-d]pyrimidin-6-yl]amino]-N,1-dimethyl-cyclopentane-carboxamide]
6.70 to 7.60	Cn1ccnc1[C@@H]1CC[C@@H](Nc2ncc3c(Br)nn(-c4ccc5ncccc5c4)c3n2)C1 (relative stereo) [3-bromo-N-(trans-3-(1-methyl-1H-imidazol-2-yl)cyclopentyl)-1-(quinolin-6-yl)-1H-pyrazolo[3,4-d]pyrimidin-6-amine]
6.70 to 7.60	CNC(=O)[C@]1(C)CC[C@@H](Nc2ncc3c(Br)nn(-c4cc(C#N)cc(OCC(C)O)c4)c3n2)C1 (stereo partly drawn) [(1R,3R)-3-[[3-bromo-1-[3-cyano-5-(2-hydroxypropoxy)phenyl]pyrazolo [3,4-d]pyrimidin-6-yl]amino]-N,1-dimethyl-cyclopentanecarboxamide]
6.70 to 7.60	CNC(=O)[C@]1(C)CC[C@@H](Nc2ncc3c(Br)nn(-c4ccc(-c5nnc(COC)o5)cc4)c3n2)C1 [(1R,3R)-3-[[3-bromo-1-[4-[5-(methoxy-methyl)-1,3,4-oxadiazol-2-yl]phenyl]pyrazolo [3,4-d]pyrimidin-6-yl]amino]-N,1-dimethyl-cyclopentanecarboxamide]
> 7.60	CN(CC(C)(C)O)C(=O)[C@]1(C)CC[C@@H](Nc2ncc3c(Br)nn(-c4cc(F)c5ncccc5c4)c3n2)C1 [(1R,3R)-3-[[3-bromo-1-(8-fluoro-6-quinolyl)pyrazolo[3,4-d]pyrimidin-6-yl]amino]-N-(2-hydroxy-2-methyl-propyl)-N,1-dimethyl-cyclopentanecarboxamide]
6.70 to 7.60	CNC(=O)[C@]1(C)CC[C@@H](Nc2ncc3c(Br)nn(-c4ccc(-n5ccnc5)cc4)c3n2)C1 [(1R,3R)-3-[[3-bromo-1-(4-imidazol-1-ylphenyl)pyrazolo[3,4-d]pyrimidin-6-yl]amino]-N,1-dimethyl-cyclo-pentanecarboxamide]
6.70 to 7.60	O=C(NCCn1ccnc1)[C@@H]1CC[C@@H](Nc2ncc3c(Br)nn(-c4ccc5ncccc5c4)c3n2)C1 [(1R,3R)-N-(2-(1H-imidazol-1-yl)ethyl)-3-((3-bromo-1-(quinolin-6-yl)-1H-pyrazolo[3,4-d]pyrimidin-6-yl)amino)cyclopentane-1-carboxamide]
6.70 to 7.60	CNC(=O)[C@@H]1CC[C@@H](Nc2ncc3c(Br)nn(-c4cc(F)c(-c5cccnc5)c(C#N)c4)c3n2)C1 [(1R,3R)-3-[[3-bromo-1-[3-cyano-5-fluoro-4-(3-pyridyl)phenyl]pyrazolo[3,4-d]pyrimidin-6-yl]amino]-N-methyl-cyclopentane-carboxamide]
6.30 to 6.70	CNC(=O)[C@H]1C[C@H](Nc2ncc3c(Br)nn(-c4cc(F)c5ncccc5c4)c3n2)C1
6.70 to 7.60	CN(C)C(=O)C1(NC(=O)[C@@H]2CC[C@@H](Nc3ncc4c(Br)nn(-c5cc(F)c6ncccc6c5)c4n3)C2)CC1 [(1R,3R)-3-[[3-bromo-1-(8-fluoro-6-quinolyl)pyrazolo[3,4-d]pyrimidin-6-yl]amino]-N-[1-(dimethylcarbamoyl)cyclopropyl]cyclo-pentanecarboxamide]
6.70 to 7.60	CNC(=O)[C@]1(C)CC[C@@H](Nc2ncc3c(Br)nn(-c4cc(F)c5c(c4)CCO5)c3n2)C1 [(1R,3R)-3-[[3-bromo-1-(7-fluoro-2,3-dihydro-benzofuran-5-yl)pyrazolo[3,4-d]pyrimidin-6-yl]amino]-N,1-dimethyl-cyclopentane-carboxamide]
> 7.60	CNC(=O)[C@]1(C)CC[C@@H](Nc2ncc3c(Br)nn(-c4ccc(-c5nnc(C)s5)c(CC(C#N)CO)c4)c3n2)C1 (stereo partly drawn) [(1R,3R)-3-[[3-bromo-1-[3-(2-cyano-3-hydroxy-propyl)-4-(5-methyl-1,3,4-thiadiazol-2-yl)phenyl]pyrazolo[3,4-d]pyrimidin-6-yl]amino]-N,1-dimethyl-cyclopentanecarboxamide]
> 7.60	CNC(=O)[C@]1(C)CC[C@@H](Nc2ncc3c(Br)nn(-c4cc(Cl)cc(OCC5(F)CNC5)c4)c3n2)C1 [(1R,3R)-3-[[3-bromo-1-[3-chloro-5-[(3-fluoroazetidin-3-yl)methoxy]phenyl]pyrazolo[3,4-d]pyrimidin-6-yl]amino]-N,1-dimethyl-cyclopentanecarboxamide]
6.70 to 7.60	CN(C)C(=O)[C@@H]1CC[C@@H](Nc2ncc3c(Br)nn(-c4cc(F)c5ncccc5c4)c3n2)C1 [(1R,3R)-3-((3-bromo-1-(8-fluoroquinolin-6-yl)-1H-pyrazolo[3,4-d]pyrimidin-6-yl)amino)-N,N-dimethylcyclopentane-1-carboxamide]
6.70 to 7.60	CNC(=O)[C@]1(C)CC[C@@H](Nc2ncc3c(Br)nn(-c4cc(/C=C/P(C)(C)=O)c5ncccc5c4)c3n2)C1 [(1R,3R)-3-[[3-bromo-1-[8-[(E)-2-dimethylphosphorylvinyl]-6-quinolyl]pyrazolo[3,4-d]pyrimidin-6-yl]amino]-N,1-dimethyl-cyclopentanecarboxamide]
6.70 to 7.60	CNC(=O)[C@]1(C)CCC(Nc2ncc3c(Br)nn(-c4ccc5c(c4)CCC(=O)N5)c3n2)C1 (stereo partly drawn) [(1R)-3-[[3-bromo-1-(2-oxo-3,4-dihydro-1H-quinolin-6-yl)pyrazolo[3,4-d]pyrimidin-6-yl]amino]-N,1-dimethyl-cyclopentane-carboxamide]
6.70 to 7.60	CN1CCN(C(=O)[C@@H]2CC[C@@H](Nc3ncc4c(Br)nn(-c5cnc6c(Cl)nccc6c5)c4n3)C2)CC1=O [4-((1R,3R)-3-((3-bromo-1-(8-chloro-1,7-naphthyridin-3-yl)-1H-pyrazolo[3,4-d]pyrimidin-6-yl)amino)cyclopentane-1-carbonyl)-1-methylpiperazin-2-one]
6.70 to 7.60	CNC(=O)[C@]1(C)CC[C@@H](Nc2ncc3c(Br)nn(-c4cc(CCNC(=O)/C=C/CN(C)C)c5ncccc5c4)c3n2)C1 [(1R,3R)-3-[[3-bromo-1-[8-[2-[[(E)-4-(dimethylamino)but-2-enoyl]amino]ethyl]-6-quinolyl]pyrazolo[3,4-d]pyrimidin-6-yl]amino]-N,1-dimethyl-cyclopentane-carboxamide]
6.30 to 6.70	COCCNC(=O)[C@@H]1CC[C@@H](Nc2ncc3c(Br)nn(-c4ccc5cccnc5c4)c3n2)C1 [(1R,3R)-3-((3-bromo-1-(quinolin-7-yl)-1H-pyrazolo[3,4-d]pyrimidin-6-yl)amino)-N-(2-methoxyethyl)cyclopentane-1-carboxamide]
6.70 to 7.60	CNC(=O)[C@]1(C)CC[C@@H](Nc2ncc3c(Br)nn(-c4cccc(CCS(C)(=O)=O)c4)c3n2)C1 [(1R,3R)-3-[[3-bromo-1-[3-(2-methyl-sulfonylethyl)phenyl]pyrazolo[3,4-d]pyrimidin-6-yl]amino]-N,1-dimethyl-cyclopentanecarboxamide]
6.70 to 7.60	Cc1nnc(-c2ccc(-n3nc(Br)c4cnc(N[C@@H]5CC[C@@](C)(N(C)C)C5)nc43)cc2CCC#N)s1 [3-[5-[3-bromo-6-[[(1R,3R)-3-(dimethylamino)-3-methyl-cyclopentyl]amino]pyrazolo[3,4-d]pyrimidin-1-yl]-2-(5-methyl-1,3,4-thiadiazol-2-yl)phenyl]propanenitrile]
6.70 to 7.60	O=C(NCCN1CCOCC1)[C@@H]1CC[C@@H](Nc2ncc3c(Br)nn(-c4ccc5ncccc5c4)c3n2)C1 [(1R,3R)-3-((3-bromo-1-(quinolin-6-yl)-1H-pyrazolo[3,4-d]pyrimidin-6-yl)amino)-N-(2-morpholinoethyl)cyclopentane-1-carboxamide]

SMILES	pIC50
CNC(=O)[C@]1(C)CC[C@@H](Nc2ncc3c(Br)nn(-c4ccc(-c5nncs5)cc4)c3n2)C1	6.70 to 7.60
Cc1nnc(-c2ccc(-n3nc(Br)c4cnc(N[C@@H]5CC[C@@](C)(C#N)C5)nc43)cc2)s1	6.70 to 7.60
CNC(=O)[C@]1(C(C)C)CC[C@@H](Nc2ncc3c(Br)nn(-c4cc([C@@H](C)N)c5nccnc5c4)c3n2)C1	> 7.60
